Reference: the NIST ThermoML archive (doi:10.1016/j.jct.2017.07.024)
± gives the expanded uncertainty stated by the source.

Assay: wn = mass fraction of the nth substance listed
Conditions: for surface tension liquid-gas: Maximal bubble pressure; for mass density: 100 kPa, Liquid, Vibrating tube method

CCCCCCn1cc[n+](C)c1.C[C@@H](O)[C@H](N)C(=O)[O-] [1-hexyl-3-methylimidazolium DL-threoninate] + O
surface tension liquid-gas (298.15 K, w2 = 0.012): 37.1 ± 0.5 mN/m
surface tension liquid-gas (298.15 K, w2 = 0.0149): 37.3 ± 0.5 mN/m
surface tension liquid-gas (298.15 K, w2 = 0.0172): 37.5 ± 0.5 mN/m
mass density (298.15 K, w2 = 0.006): 1082.96 ± 0.68 kg/m3
mass density (298.15 K, w2 = 0.0091): 1082.73 ± 0.68 kg/m3
mass density (298.15 K, w2 = 0.012): 1082.54 ± 0.68 kg/m3
mass density (298.15 K, w2 = 0.0149): 1082.37 ± 0.68 kg/m3
mass density (298.15 K, w2 = 0.0172): 1082.19 ± 0.67 kg/m3
surface tension liquid-gas (303.15 K, w2 = 0.006): 36.4 ± 0.5 mN/m
surface tension liquid-gas (303.15 K, w2 = 0.0091): 36.7 ± 0.5 mN/m
surface tension liquid-gas (303.15 K, w2 = 0.012): 36.9 ± 0.5 mN/m
surface tension liquid-gas (303.15 K, w2 = 0.0149): 37.1 ± 0.5 mN/m
surface tension liquid-gas (303.15 K, w2 = 0.0172): 37.3 ± 0.5 mN/m
mass density (303.15 K, w2 = 0.006): 1079.61 ± 0.68 kg/m3
mass density (303.15 K, w2 = 0.0091): 1079.38 ± 0.68 kg/m3
mass density (303.15 K, w2 = 0.012): 1079.19 ± 0.67 kg/m3
mass density (303.15 K, w2 = 0.0149): 1079.01 ± 0.67 kg/m3
mass density (303.15 K, w2 = 0.0172): 1078.82 ± 0.67 kg/m3
surface tension liquid-gas (308.15 K, w2 = 0.006): 36.1 ± 0.5 mN/m
surface tension liquid-gas (308.15 K, w2 = 0.0091): 36.4 ± 0.5 mN/m
surface tension liquid-gas (308.15 K, w2 = 0.012): 36.6 ± 0.5 mN/m
surface tension liquid-gas (308.15 K, w2 = 0.0149): 36.8 ± 0.5 mN/m
surface tension liquid-gas (308.15 K, w2 = 0.0172): 37 ± 0.5 mN/m
mass density (308.15 K, w2 = 0.006): 1076.29 ± 0.67 kg/m3
mass density (308.15 K, w2 = 0.0091): 1076.06 ± 0.67 kg/m3
mass density (308.15 K, w2 = 0.012): 1075.86 ± 0.67 kg/m3
mass density (308.15 K, w2 = 0.0149): 1075.69 ± 0.67 kg/m3
mass density (308.15 K, w2 = 0.0172): 1075.49 ± 0.67 kg/m3
surface tension liquid-gas (313.15 K, w2 = 0.006): 35.8 ± 0.5 mN/m
surface tension liquid-gas (313.15 K, w2 = 0.0091): 36.1 ± 0.5 mN/m
surface tension liquid-gas (313.15 K, w2 = 0.012): 36.3 ± 0.5 mN/m
surface tension liquid-gas (313.15 K, w2 = 0.0149): 36.5 ± 0.5 mN/m
surface tension liquid-gas (313.15 K, w2 = 0.0172): 36.7 ± 0.5 mN/m
mass density (313.15 K, w2 = 0.006): 1073 ± 0.67 kg/m3
mass density (313.15 K, w2 = 0.0091): 1072.76 ± 0.67 kg/m3
mass density (313.15 K, w2 = 0.012): 1072.56 ± 0.67 kg/m3
mass density (313.15 K, w2 = 0.0149): 1072.38 ± 0.67 kg/m3
mass density (313.15 K, w2 = 0.0172): 1072.18 ± 0.67 kg/m3
surface tension liquid-gas (318.15 K, w2 = 0.006): 35.5 ± 0.5 mN/m
surface tension liquid-gas (318.15 K, w2 = 0.0091): 35.8 ± 0.5 mN/m
surface tension liquid-gas (318.15 K, w2 = 0.012): 36 ± 0.5 mN/m
surface tension liquid-gas (318.15 K, w2 = 0.0149): 36.3 ± 0.5 mN/m
surface tension liquid-gas (318.15 K, w2 = 0.0172): 36.5 ± 0.5 mN/m
mass density (318.15 K, w2 = 0.006): 1069.54 ± 0.67 kg/m3
mass density (318.15 K, w2 = 0.0091): 1069.29 ± 0.67 kg/m3
mass density (318.15 K, w2 = 0.012): 1069.09 ± 0.67 kg/m3
mass density (318.15 K, w2 = 0.0149): 1068.91 ± 0.67 kg/m3
mass density (318.15 K, w2 = 0.0172): 1068.71 ± 0.67 kg/m3
surface tension liquid-gas (323.15 K, w2 = 0.006): 35.2 ± 0.5 mN/m
surface tension liquid-gas (323.15 K, w2 = 0.0091): 35.5 ± 0.5 mN/m
surface tension liquid-gas (323.15 K, w2 = 0.012): 35.7 ± 0.5 mN/m
surface tension liquid-gas (323.15 K, w2 = 0.0149): 36 ± 0.5 mN/m
surface tension liquid-gas (323.15 K, w2 = 0.0172): 36.2 ± 0.5 mN/m
mass density (323.15 K, w2 = 0.006): 1066.37 ± 0.67 kg/m3
mass density (323.15 K, w2 = 0.0091): 1066.12 ± 0.67 kg/m3
mass density (323.15 K, w2 = 0.012): 1065.91 ± 0.67 kg/m3
mass density (323.15 K, w2 = 0.0149): 1065.72 ± 0.67 kg/m3
mass density (323.15 K, w2 = 0.0172): 1065.51 ± 0.67 kg/m3
surface tension liquid-gas (328.15 K, w2 = 0.006): 34.9 ± 0.5 mN/m
surface tension liquid-gas (328.15 K, w2 = 0.0091): 35.2 ± 0.5 mN/m
surface tension liquid-gas (328.15 K, w2 = 0.012): 35.4 ± 0.5 mN/m
surface tension liquid-gas (328.15 K, w2 = 0.0149): 35.7 ± 0.5 mN/m
surface tension liquid-gas (328.15 K, w2 = 0.0172): 35.9 ± 0.5 mN/m
mass density (328.15 K, w2 = 0.006): 1063.07 ± 0.67 kg/m3
mass density (328.15 K, w2 = 0.0091): 1062.82 ± 0.67 kg/m3
mass density (328.15 K, w2 = 0.012): 1062.61 ± 0.67 kg/m3
mass density (328.15 K, w2 = 0.0149): 1062.42 ± 0.67 kg/m3
mass density (328.15 K, w2 = 0.0172): 1062.21 ± 0.67 kg/m3
